Test results from ChEMBL document CHEMBL1156904, “Part II: piperazinyl-glutamate-pyridines as potent orally bioavailable P2Y12 antagonists for inhibition of platelet aggregation” (Bioorg Med Chem Lett, 2010).
pIC50, pKi: −log10 of the molar value. In brackets after ≈: the same amount, converted by molar mass.

Key:
P2Y purinoceptor 12 [1] = target: T1, P2Y purinoceptor 12 (Homo sapiens, UniProt Q9H244); test: Inhibition of human P2Y12 receptor expressed in CHO cells
[2] = Antiplatelet activity in human platelet rich plasma assessed as inhibition of ADP-induced platelet aggregation; assay type: functional
[3] = Antiplatelet activity in human platelet rich plasma assessed as inhibition of ADP-induced platelet aggregation relative to AZD-6140; assay type: functional
[4] = Metabolic stability in rat microsomes; assay type: ADME, Microsome
[5] = Metabolic stability in human microsomes; assay type: ADME, Microsome
[6] = Clearance in Sprague-Dawley rat at 2 mg/kg, iv and 5 mg/kg, po; assay type: ADME, organism-based; details: in vivo
[7] = Volume of distribution at steady state in Sprague-Dawley rat at 2 mg/kg, iv and 5 mg/kg, po; assay type: ADME, organism-based; details: in vivo, read-out: Vdss
[8] = Effective half life in Sprague-Dawley rat at 2 mg/kg, iv and 5 mg/kg, po; assay type: ADME, organism-based; details: in vivo, read-out: t1/2eff (converted)
[9] = target: Voltage-gated inwardly rectifying potassium channel KCNH2 (Homo sapiens, UniProt Q12809); test: Inhibition of human ERG
Rattus norvegicus = test: Toxicity in rat administered as 7 day repeat dose; assay type: organism-based; details: in vivo, 168 h
[10] = Solubility at pH 2.0; assay type: physicochemical; details: buffer
[11] = Solubility at pH 6.5; assay type: physicochemical; details: buffer
[12] = Solubility at pH 9.0; assay type: physicochemical; details: buffer
[13] = Antiplatelet activity in human platelet rich plasma assessed as inhibition of ADP-induced platelet aggregation by chronolog PRP aggregometry assay; assay type: functional
P2Y purinoceptor 12 [14] = target: T1, P2Y purinoceptor 12; test: Inhibition of human P2Y12 receptor expressed in CHO cells in presence of 0.4% human serum albumin
[15] = Clearance in Beagle dog at 0.5 mg/kg, iv and 1 mg/kg, po; assay type: ADME, organism-based, Canis lupus familiaris; details: in vivo
[16] = Volume of distribution at steady state in Beagle dog at 0.5 mg/kg, iv and 1 mg/kg, po; assay type: ADME, organism-based, Canis lupus familiaris; details: in vivo, read-out: Vdss
[17] = Effective half life in Beagle dog at 0.5 mg/kg, iv and 1 mg/kg, po; assay type: ADME, organism-based, Canis lupus familiaris; details: in vivo
[18] = Protein binding in human plasma assessed as fraction unbound at 2 uM
[19] = Protein binding in human plasma assessed as fraction unbound at 10 uM
[20] = Protein binding in human plasma assessed as fraction unbound at 0.2 uM
[21] = Clearance in Beagle dog at 0.2 mg/kg, iv and 0.2 mg/kg, po; assay type: ADME, organism-based, Canis lupus familiaris; details: in vivo
[22] = Volume of distribution at steady state in Beagle dog at 0.2 mg/kg, iv and 0.2 mg/kg, po; assay type: ADME, organism-based, Canis lupus familiaris; details: in vivo, read-out: Vdss
[23] = Effective half life in Beagle dog at 0.2 mg/kg, iv and 0.2 mg/kg, po; assay type: ADME, organism-based, Canis lupus familiaris; details: in vivo

T1 sequence (Q9H244 whole entry): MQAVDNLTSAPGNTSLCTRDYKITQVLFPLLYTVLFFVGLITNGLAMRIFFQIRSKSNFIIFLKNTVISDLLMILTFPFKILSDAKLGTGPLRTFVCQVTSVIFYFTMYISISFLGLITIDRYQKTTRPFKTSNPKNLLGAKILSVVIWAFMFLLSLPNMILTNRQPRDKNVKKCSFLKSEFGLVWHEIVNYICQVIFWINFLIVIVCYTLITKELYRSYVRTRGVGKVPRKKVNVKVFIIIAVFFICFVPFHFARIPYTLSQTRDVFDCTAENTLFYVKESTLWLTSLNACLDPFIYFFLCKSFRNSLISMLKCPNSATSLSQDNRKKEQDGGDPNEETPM
Voltage-gated inwardly rectifying potassium channel KCNH2, sequence (Q12809 whole entry): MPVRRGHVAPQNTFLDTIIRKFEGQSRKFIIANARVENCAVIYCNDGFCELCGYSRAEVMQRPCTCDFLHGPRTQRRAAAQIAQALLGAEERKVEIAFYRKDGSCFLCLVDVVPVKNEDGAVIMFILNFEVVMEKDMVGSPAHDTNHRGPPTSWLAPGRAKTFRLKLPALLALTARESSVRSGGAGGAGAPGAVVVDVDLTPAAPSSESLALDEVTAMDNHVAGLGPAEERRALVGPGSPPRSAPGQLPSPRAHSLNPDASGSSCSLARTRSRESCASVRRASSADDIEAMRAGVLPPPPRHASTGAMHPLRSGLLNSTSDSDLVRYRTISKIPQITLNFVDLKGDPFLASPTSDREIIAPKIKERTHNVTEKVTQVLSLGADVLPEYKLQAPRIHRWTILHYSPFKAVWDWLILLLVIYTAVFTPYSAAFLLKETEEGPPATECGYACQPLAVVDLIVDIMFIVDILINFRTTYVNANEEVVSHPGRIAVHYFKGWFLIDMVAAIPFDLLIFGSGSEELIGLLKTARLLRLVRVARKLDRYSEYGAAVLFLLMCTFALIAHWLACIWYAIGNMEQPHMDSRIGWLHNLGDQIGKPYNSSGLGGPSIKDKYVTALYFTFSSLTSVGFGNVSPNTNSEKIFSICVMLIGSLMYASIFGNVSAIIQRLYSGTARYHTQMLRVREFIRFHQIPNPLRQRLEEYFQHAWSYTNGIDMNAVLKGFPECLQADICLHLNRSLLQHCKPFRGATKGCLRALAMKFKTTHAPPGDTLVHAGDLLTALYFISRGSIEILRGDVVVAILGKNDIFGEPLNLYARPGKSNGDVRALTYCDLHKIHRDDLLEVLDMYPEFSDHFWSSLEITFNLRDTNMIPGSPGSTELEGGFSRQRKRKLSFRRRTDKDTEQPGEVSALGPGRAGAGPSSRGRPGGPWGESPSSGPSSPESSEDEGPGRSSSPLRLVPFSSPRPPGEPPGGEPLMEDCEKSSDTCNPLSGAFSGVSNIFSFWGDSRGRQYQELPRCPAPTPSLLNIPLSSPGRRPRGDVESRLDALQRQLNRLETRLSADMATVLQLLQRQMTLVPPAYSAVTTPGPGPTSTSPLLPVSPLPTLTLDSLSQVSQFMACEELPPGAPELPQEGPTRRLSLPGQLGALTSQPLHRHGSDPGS

Compound	pKi (P2Y purinoceptor 12 [1])	pIC50 [2]	Stability [4]	Stability [5]	clearance [6]	Vd [7]	half-life [8]	fold change (FC) [3]	other results
CCCCCOC(=O)N1CCN(C(=O)[C@H](CCC(=O)O)NC(=O)c2cc(N3CCC(CCN(C)C)CC3)cc(-c3ccccc3)n2)CC1	7.92	6.41	Stable	Stable	145 mL/min/kg	5.1 L/kg	24 min	0.54	
CCCCCOC(=O)N1CCN(C(=O)[C@H](CCC(=O)O)NC(=O)c2cc(N3CCC(C(=O)N4CCCC4)CC3)cc(-c3ccccc3)n2)CC1	8.55	6.40	Stable	Stable	5 mL/min/kg	0.5 L/kg	66 min	0.65	Kb [2]: 68 nM; pIC50 [9]: < 4.05; Activity (Rattus norvegicus): Non-toxic; solubility [10]: 299 µM (≈ 207 µg/mL); solubility [11]: 48 µM (≈ 33.2 µg/mL); solubility [12]: 1290 µM (≈ 892 µg/mL); pIC50 [13]: 6.49; pKi (P2Y purinoceptor 12 [14]): 8.17; clearance [15]: 2 mL/min/kg; Vd [16]: 0.18 L/kg; half-life [17]: 60 min; fraction unbound at 2 µM [18]: 0.057; fraction unbound at 10 µM [19]: 0.061; fraction unbound at 0.2 µM [20]: 0.053
CCCCCOC(=O)N1CCN(C(=O)[C@H](CCC(=O)O)NC(=O)c2cc(N3CC[C@H](OCC(=O)N(C)C)C3)cc(-c3ccccc3)n2)CC1	8.30	6.18	Stable	Stable	41 mL/min/kg	0.8 L/kg	12 min	0.75	
CCCCCOC(=O)N1CCN(C(=O)[C@H](CCC(=O)O)NC(=O)c2cc(N3CC[C@@H](OCC(=O)N(CC)CC)C3)cc(-c3ccccc3)n2)CC1	8.46	6.48	Stable	Stable	87 mL/min/kg	2.1 L/kg	18 min	0.38	
CCCCCOC(=O)N1CCN(C(=O)[C@H](CCC(=O)O)NC(=O)c2cc(N3CCC(C(=O)N4CCC4)CC3)cc(-c3ccccc3)n2)CC1	8.92	6.39	Stable	Stable	9 mL/min/kg	0.2 L/kg	18 min	0.64	
CCCCCOC(=O)N1CCN(C(=O)[C@H](CCC(=O)O)NC(=O)c2cc(N3CCC(C(=O)N(CC)CC)CC3)cc(-c3ccccc3)n2)CC1	8.40	6.28	Stable	Stable	13 mL/min/kg	2.5 L/kg	36 min	0.65	clearance [21]: 2 mL/min/kg; Vd [22]: 0.12 L/kg; half-life [23]: 42 min
CCCCCOC(=O)N1CCN(C(=O)[C@H](CCC(=O)O)NC(=O)c2cc(N3CC[C@H](C(=O)N4CCCC4)C3)cc(-c3ccccc3)n2)CC1	8.77	5.59	Stable	Stable				2.8	
CCCCOC(=O)N1CCN(C(=O)[C@H](CCC(=O)O)NC(=O)c2cc(N3CCC(C(=O)N(CC)CC)CC3)cc(-c3ccccc3)n2)CC1	8.96	6.37	Stable	Stable	24 mL/min/kg	0.9 L/kg	24 min	0.71	
CCCCCOC(=O)N1CCN(C(=O)[C@H](CCC(=O)O)NC(=O)c2cc(N3CCN(C(=O)CN(C)C)CC3)cc(-c3ccccc3)n2)CC1	8.55	6.15	Stable	Stable				2.5	
CCCCCOC(=O)N1CCN(C(=O)[C@H](CCC(=O)O)NC(=O)c2cc(N3CC(C(=O)NCC)C3)cc(-c3ccccc3)n2)CC1	8.70	5.74	Stable	Stable				1.5	
CCCCCOC(=O)N1CCN(C(=O)[C@H](CCC(=O)O)NC(=O)c2cc(N3CCC(COC)CC3)cc(-c3ccccc3)n2)CC1		5.41	Stable	Stable				3.3	clearance [21]: 1 mL/min/kg; Vd [22]: 0.14 L/kg; half-life [23]: 90 min

The next lines start with results.

pKi (P2Y purinoceptor 12 [1])	pIC50 [2]	Stability [4]	Stability [5]	clearance [6]	Vd [7]	half-life [8]	Compound	fold change (FC) [3]	other results
7.66	5.64	Stable	Stable	70 mL/min/kg	2.4 L/kg	24 min	CCCCCOC(=O)N1CCN(C(=O)[C@H](CCC(=O)O)NC(=O)c2cc(N3CCN(C(C)=O)CC3)cc(-c3ccccc3)n2)CC1	2.7	
9.24	6.19	Stable	Stable	11 mL/min/kg	0.3 L/kg	18 min	CCCCCOC(=O)N1CCN(C(=O)[C@H](CCC(=O)O)NC(=O)c2cc(N3CCC(C(=O)NCC)CC3)cc(-c3ccccc3)n2)CC1	1	
8.14	5.77	Stable	Stable	47 mL/min/kg	1.8 L/kg	24 min	CCCCCOC(=O)N1CCN(C(=O)[C@H](CCC(=O)O)NC(=O)c2cc(N3CCCC(CN4CCCC4)C3)cc(-c3ccccc3)n2)CC1 (some centres not stated)	1.5	
9.17	5.92	Stable	Stable				CCCCOC(=O)N1CCN(C(=O)[C@H](CCC(=O)O)NC(=O)c2cc(N3CCC(C(=O)NCC)CC3)cc(-c3ccccc3)n2)CC1	0.9	
8.55	6.07	Stable	Stable				CCCCCOC(=O)N1CCN(C(=O)[C@H](CCC(=O)O)NC(=O)c2cc(N3CCC(CCN)CC3)cc(-c3ccccc3)n2)CC1	0.66	
7.80	5.36	Stable	Stable				CCCCCOC(=O)N1CCN(C(=O)[C@H](CCC(=O)O)NC(=O)c2cc(N3CCC[C@@H](O)C3)cc(-c3ccccc3)n2)CC1	4.9	
7.60	5.17	Stable	Stable				CCCCCOC(=O)N1CCN(C(=O)[C@H](CCC(=O)O)NC(=O)c2cc(N3CCC(CNC(C)=O)CC3)cc(-c3ccccc3)n2)CC1	3.9	
7.82	5.64	Stable	Stable	141 mL/min/kg	10 L/kg	48 min	CCCCCOC(=O)N1CCN(C(=O)[C@H](CCC(=O)O)NC(=O)c2cc(N3CCN(C)CC3)cc(-c3ccccc3)n2)CC1	2.5	
